In this assay the test system is PANK2−/− IMR32 cells. The assay can be described thus: Coenzyme A assay in PANK2 silenced cells (LC-MS quantification of free CoA). It is filed as cell-based, human. To be noted: Homo sapiens, IMR-32, fold increase in CoA levels relative to controls, treated twice, 24 h + 24 h; for fold induction at 50 µM: compound concentration 50 uM; for fold induction at 1 µM: compound concentration 1 uM; for fold induction at 10 µM: compound concentration 10 uM. The protocol: A human neuroblastoma IMR32 cell line (ATCC) with stably PANK2 silencing was obtained by lentiviral-delivered small hairpin RNA and cultured in MEM (Invitrogen) supplemented with 10% fetal bovine serum, 2 mM glutamine, 1% penicillin-streptomycin, 1 mM sodium pyruvate, 1 mM non-essential amino acids, and 1.5 g/l sodium bicarbonate.
A non-silencing shRNA construct (scrambled shRNA) and an empty vector expressing GFP alone were used as negative controls. The GFP tag subcloned into the lentiviral vectors was used to monitor the transfection efficiency.
Three days after transduction medium was removed and replaced with fresh medium containing […] puromycin. […] The level of PANK2 expression in selected clones was assessed by Western Blot analysis.
To quantify CoA, PANK2−/− IMR32 cells were plated on 12-well culture plates (Corning) at a density of 0.2×10^6 cells per well. […] Controls with medium containing 0.1% DMSO without test compounds were also included in each plate. […] Before LC-MS analysis of CoA levels, cells were harvested, counted, and collected in a 15 ml falcon tube and centrifuged at 200×g for 5 min at 4° C. Supernatant was removed and cell pellet was washed in 10 ml of ice-cold PBS. To further confirm that the numbers of cells in each sample were equivalent, an equal fraction of pellet was collected from each sample and subjected to protein determination analysis. After centrifugation and supernatant removal, the cell pellet was rapidly frozen in Liquid Nitrogen and stored at −80° C. until analysis.
Intracellular CoA levels were calculated considering an intracellular volume of 1 million cells=2 μl.
The 1*10^6 cellular pellet was extracted with 120 μl of aqueous 20% TFA.
100 μL samples of supernatant were dried under N2 at 20° C. in the dark.
Samples were re-dissolved in 100 μl of 10 mM NH4^+ AcO^− buffer pH 5.1+IS (Dextrorphan 50 ng/ml), stirred for 2 min, sonicated in ultrasonic bath for 1 min, then stirred again for 1 min, and injected into LC-MS.
LC-MS/MS was performed using an Agilent HPLC (1100 Series, USA). The LC system was interfaced with an API-4000 Q-Trap triple quadrupole mass spectrometer (AB Sciex, Toronto, Canada) equipped with a TurboIonSpray ionization source operating in positive ion mode. Analyst™ software version 1.6 (AB Sciex, Toronto, Canada) was used for data acquisition and processing. CoA was separated using a Luna C18 column (2.0×50 mm; 5 μm particle size), column at 25° C. and flow rate of 0.2 ml/min. Injection volume was 15 μl. The mobile phases consisted of water containing 10 mM ammonium acetate pH 7 (mobile phase A) and MeCN-2-propanol 9:1 (mobile phase B).
Results are expressed as fold increase in CoA levels relative to controls (using LC-MS quantification of free CoA).

Regarding `COC(=O)[C@H](C)N[P@]1(=O)OCC(C)(C)[C@H](C(=O)NCCC(=O)NCCSC(C)=O)O1` [R1004, methyl ((2S,4R)-4-((3-((2-(acetylthio)ethyl)amino)-3-oxopropyl)carbamoyl)-5,5-dimethyl-2-oxido-1,3,2-dioxaphosphinan-2-yl)-L-alaninate], the fold induction at 50 µM is 2.1.
As to `CC(=O)SCCNC(=O)CCNC(=O)[C@@H]1OP(=O)(OCOC(=O)c2ccccc2)OCC1(C)C` (stereo partly drawn) [R1009, (((4R)-4-((3-((2-(acetylthio)ethyl)amino)-3-oxopropyl)carbamoyl)-5,5-dimethyl-2-oxido-1,3,2-dioxaphosphinan-2-yl)oxy)methyl benzoate], the fold induction at 1 µM is 69.5.
Still for that read-out and setting: under `CC(=O)SCCNC(=O)CCNC(=O)[C@@H]1OP(=O)(OCOC(=O)c2cc(C(C)(C)C)nn2C)OCC1(C)C` (stereo partly drawn) [R1010, (((4R)-4-((3-((2-(acetylthio)ethyl)amino)-3-oxopropyl)carbamoyl)-5,5-dimethyl-2-oxido-1,3,2-dioxaphosphinan-2-yl)oxy)methyl 3-(tert-butyl)-1-methyl-1H-pyrazole-5-carboxylate] stands 200.
For the compound `COC(=O)[C@@H](N[P@@]1(=O)OCC(C)(C)[C@H](C(=O)NCCC(=O)NCCSC(C)=O)O1)C(C)C` [R1014, methyl ((2R,4R)-4-((3-((2-(acetylthio)ethyl)amino)-3-oxopropyl)carbamoyl)-5,5-dimethyl-2-oxido-1,3,2-dioxaphosphinan-2-yl)-L-valinate], the fold induction at 50 µM worked out at 1.7.
In the case of `CC(=O)SCCNC(=O)CCNC(=O)[C@@H]1O[P@@](=O)(OCOC(=O)c2cc(C(C)(C)C)n[nH]2)OCC1(C)C` [R1016, (((2S,4R)-4-((3-((2-(acetylthio)ethyl)amino)-3-oxopropyl)carbamoyl)-5,5-dimethyl-2-oxido-1,3,2-dioxaphosphinan-2-yl)oxy)methyl 3-(tert-butyl)-1H-pyrazole-5-carboxylate], the fold induction at 1 µM was 323.
On the same count and under the same terms, for `CC(=O)SCCNC(=O)CCNC(=O)[C@@H]1O[P@@](=O)(OCOC(=O)OC(C)C)OCC1(C)C` [R1017, S-(2-(3-((2S,4R)-2-(((isopropoxycarbonyl)oxy)methoxy)-5,5-dimethyl-2-oxido-1,3,2-dioxaphosphinane-4-carboxamido)propanamido)ethyl) ethanethioate] the value was 18.4.
Turning to `CC(=O)SCCNC(=O)CCNC(=O)[C@@H]1OP(=O)(OCOC(=O)C(C)C)OCC1(C)C` (stereo partly drawn) [R1024, (((4R)-4-((3-((2-(acetylthio)ethyl)amino)-3-oxopropyl)carbamoyl)-5,5-dimethyl-2-oxido-1,3,2-dioxaphosphinan-2-yl)oxy)methyl isobutyrate], the fold induction at 1 µM amounted to 1.4.
Turning to `CC(=O)OCCNC(=O)OCOP1(=O)OCC(C)(C)[C@H](C(=O)NCCC(=O)NCCSC(C)=O)O1` (stereo partly drawn) [R1025, 2-((((((4R)-4-((3-((2-(acetylthio)ethyl)amino)-3-oxopropyl)carbamoyl)-5,5-dimethyl-2-oxido-1,3,2-dioxaphosphinan-2-yl)oxy)methoxy)carbonyl)amino)ethyl acetate], the fold induction at 10 µM was determined as 1.4.
Consider `COC(=O)[C@@H](NP1(=O)OCC(C)(C)[C@H](C(=O)NCCC(=O)NCCSC(C)=O)O1)C(C)C` (stereo partly drawn) [R1026, methyl ((4R)-4-((3-((2-(acetylthio)ethyl)amino)-3-oxopropyl)carbamoyl)-5,5-dimethyl-2-oxido-1,3,2-dioxaphosphinan-2-yl)-L-valinate], for which the fold induction at 50 µM was 2.5.
On the same count and under the same terms, for `CC(=O)OCC(C)(C)NC(=O)OCOP1(=O)OCC(C)(C)[C@H](C(=O)NCCC(=O)NCCSC(C)=O)O1` (stereo partly drawn) [R1027, 2-((((((4R)-4-((3-((2-(acetylthio)ethyl)amino)-3-oxopropyl)carbamoyl)-5,5-dimethyl-2-oxido-1,3,2-dioxaphosphinan-2-yl)oxy)methoxy)carbonyl)amino)-2-methylpropyl acetate] the value was 2.8; for `CC(=O)SCCNC(=O)CCNC(=O)[C@@H]1OP(=O)(OCOC(=O)NC(C)(C)COC(=O)C(C)(C)C)OCC1(C)C` (stereo partly drawn) [R1028, 2-((((((4R)-4-((3-((2-(acetylthio)ethyl)amino)-3-oxopropyl)carbamoyl)-5,5-dimethyl-2-oxido-1,3,2-dioxaphosphinan-2-yl)oxy)methoxy)carbonyl)amino)-2-methylpropyl pivalate], 5.7; for `CC(=O)SCCNC(=O)CCNC(=O)[C@@H]1OP(=O)(OCOC(=O)N[C@@H](CSC(=O)C(C)(C)C)C(=O)OCc2ccccc2)OCC1(C)C` (stereo partly drawn) [R1029, benzyl N-(((((4R)-4-((3-((2-(acetylthio)ethyl)amino)-3-oxopropyl)carbamoyl)-5,5-dimethyl-2-oxido-1,3,2-dioxaphosphinan-2-yl)oxy)methoxy)carbonyl)-S-pivaloyl-L-cysteinate], 120.
Take `CC(=O)SCCNC(=O)CCNC(=O)[C@@H]1O[P@@](=O)(OCOC(=O)NCCOC(=O)C(C)(C)C)OCC1(C)C` [R1030, 2-((((((2S,4R)-4-((3-((2-(acetylthio)ethyl)amino)-3-oxopropyl)carbamoyl)-5,5-dimethyl-2-oxido-1,3,2-dioxaphosphinan-2-yl)oxy)methoxy)carbonyl)amino)ethyl pivalate]: the fold induction at 10 µM turned out to be 7.1.
As for `CC(=O)SCCNC(=O)CCNC(=O)[C@@H]1OP(=O)(OCOC(=O)NCCOC(=O)[C@@H](N)C(C)C)OCC1(C)C` (stereo partly drawn) [R1032, 2-((((((4R)-4-((3-((2-(acetylthio)ethyl)amino)-3-oxopropyl)carbamoyl)-5,5-dimethyl-2-oxido-1,3,2-dioxaphosphinan-2-yl)oxy)methoxy)carbonyl)amino)ethyl L-valinate], the fold induction at 50 µM is 1.
With `CC(=O)SCCNC(=O)CCNC(=O)[C@@H]1OP(=O)(OCOC(=O)c2ccc(Cl)cc2)OCC1(C)C` (stereo partly drawn) [R1033, (((4R)-4-((3-((2-(acetylthio)ethyl)amino)-3-oxopropyl)carbamoyl)-5,5-dimethyl-2-oxido-1,3,2-dioxaphosphinan-2-yl)oxy)methyl 4-chlorobenzoate], the fold induction at 1 µM stood at 25.8.
The same measure, in the same setting: for `CC(=O)SCCNC(=O)CCNC(=O)[C@@H]1OP(=O)(OCOC(=O)c2cccc(Cl)c2)OCC1(C)C` (stereo partly drawn) [R1034, (((4R)-4-((3-((2-(acetylthio)ethyl)amino)-3-oxopropyl)carbamoyl)-5,5-dimethyl-2-oxido-1,3,2-dioxaphosphinan-2-yl)oxy)methyl 3-chlorobenzoate] the value was 29.6.
The same measure, in the same setting: for `COc1ccc(C(=O)OCOP2(=O)OCC(C)(C)[C@H](C(=O)NCCC(=O)NCCSC(C)=O)O2)cc1` (stereo partly drawn) [R1035, (((4R)-4-((3-((2-(acetylthio)ethyl)amino)-3-oxopropyl)carbamoyl)-5,5-dimethyl-2-oxido-1,3,2-dioxaphosphinan-2-yl)oxy)methyl 4-methoxybenzoate] the value was 18; for `CC(=O)SCCNC(=O)CCNC(=O)[C@@H]1OP(=O)(OCOC(=O)c2ccc(C)cc2)OCC1(C)C` (stereo partly drawn) [R1036, (((4R)-4-((3-((2-(acetylthio)ethyl)amino)-3-oxopropyl)carbamoyl)-5,5-dimethyl-2-oxido-1,3,2-dioxaphosphinan-2-yl)oxy)methyl 4-methylbenzoate], 52.2.
Same read-out and setting: under `CC(=O)SCCNC(=O)CCNC(=O)[C@@H]1OP(=O)(OCOC(=O)c2ccc(C(F)(F)F)cc2)OCC1(C)C` (stereo partly drawn) [R1037, (((4R)-4-((3-((2-(acetylthio)ethyl)amino)-3-oxopropyl)carbamoyl)-5,5-dimethyl-2-oxido-1,3,2-dioxaphosphinan-2-yl)oxy)methyl 4-(trifluoromethyl)benzoate] stands 30.1; under `COc1cccc(C(=O)OCOP2(=O)OCC(C)(C)[C@H](C(=O)NCCC(=O)NCCSC(C)=O)O2)c1` (stereo partly drawn) [R1038, (((4R)-4-((3-((2-(acetylthio)ethyl)amino)-3-oxopropyl)carbamoyl)-5,5-dimethyl-2-oxido-1,3,2-dioxaphosphinan-2-yl)oxy)methyl 3-methoxybenzoate], 26.2.
As for `CC(=O)SCCNC(=O)CCNC(=O)[C@@H]1OP(=O)(OCOC(=O)c2cccc(C)c2)OCC1(C)C` (stereo partly drawn) [R1039, (((4R)-4-((3-((2-(acetylthio)ethyl)amino)-3-oxopropyl)carbamoyl)-5,5-dimethyl-2-oxido-1,3,2-dioxaphosphinan-2-yl)oxy)methyl 3-methylbenzoate], the fold induction at 1 µM came out at 27.4.

These data come from patent US20190337971A1, “PANTETHEINE DERIVATIVES FOR THE TREATMENT OF NEUROLOGIC DISORDERS” (Retrophin, Inc., priority 2016, published 2019).
